Measured values reported in PubChem BioAssay (NCI).
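Cultured in 96-well plates, cells were exposed to test compound for 48 hours across five concentrations. The concentration for full growth arrest is given as TGI.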

What was measured:
Test in all cases: DTP human tumour cell line panel, 48 h
786-0 renal = system: 786-0 renal
A498 renal = system: A498 renal
A549 NSCLC = system: A549 NSCLC
ACHN renal = system: ACHN renal
BT-549 breast = system: BT-549 breast
CAKI-1 renal = system: CAKI-1 renal
COLO 205 colon = system: COLO 205 colon
DU-145 prostate = system: DU-145 prostate
EKVX NSCLC = system: EKVX NSCLC
HCC-2998 colon = system: HCC-2998 colon
HCT-116 colon = system: HCT-116 colon
HCT-15 colon = system: HCT-15 colon
HOP-62 NSCLC = system: HOP-62 NSCLC
HOP-92 NSCLC = system: HOP-92 NSCLC
HS 578T breast = system: HS 578T breast
HT29 colon = system: HT29 colon
IGROV1 ovarian = system: IGROV1 ovarian
K-562 leukemia = system: K-562 leukemia
KM12 colon = system: KM12 colon
M14 melanoma = system: M14 melanoma
MALME-3M melanoma = system: MALME-3M melanoma
MCF7 breast = system: MCF7 breast
MDA-MB-231 breast = system: MDA-MB-231 breast
MDA-MB-435 = system: MDA-MB-435
MOLT-4 leukemia = system: MOLT-4 leukemia
NCI-H226 lung = system: NCI-H226 lung
NCI-H23 lung = system: NCI-H23 lung
NCI-H460 lung = system: NCI-H460 lung
NCI-H522 lung = system: NCI-H522 lung
NCI/ADR-RES ovarian = system: NCI/ADR-RES ovarian
OVCAR-3 ovarian = system: OVCAR-3 ovarian
OVCAR-4 ovarian = system: OVCAR-4 ovarian
OVCAR-5 ovarian = system: OVCAR-5 ovarian
OVCAR-8 ovarian = system: OVCAR-8 ovarian
PC-3 prostate = system: PC-3 prostate
RPMI-8226 leukemia = system: RPMI-8226 leukemia
RXF 393 renal = system: RXF 393 renal
SF-268 CNS = system: SF-268 CNS
SF-295 CNS = system: SF-295 CNS
SF-539 CNS = system: SF-539 CNS
SK-MEL-2 melanoma = system: SK-MEL-2 melanoma
SK-MEL-28 melanoma = system: SK-MEL-28 melanoma
SK-MEL-5 melanoma = system: SK-MEL-5 melanoma
SK-OV-3 ovarian = system: SK-OV-3 ovarian
SN12C renal = system: SN12C renal
SNB-19 CNS = system: SNB-19 CNS
SNB-75 CNS = system: SNB-75 CNS
SW-620 colon = system: SW-620 colon
T-47D breast = system: T-47D breast
TK-10 renal = system: TK-10 renal
U251 CNS = system: U251 CNS
UACC-257 melanoma = system: UACC-257 melanoma
UACC-62 melanoma = system: UACC-62 melanoma
UO-31 renal = system: UO-31 renal

Question: What does the source list for Oc1ccc2ccccc2c1OCc1nnc(CCCCCCCCc2nnc(COc3c(O)ccc4ccccc34)n2Nc2ccccc2)n1Nc1ccccc1?
Answer: TGI (786-0 renal): 58.7 µM; TGI (A498 renal): > 100 µM; TGI (A549 NSCLC): > 100 µM; TGI (ACHN renal): > 100 µM; TGI (BT-549 breast): 77.7 µM; TGI (CAKI-1 renal): > 56.5 µM; TGI (COLO 205 colon): 1.28 µM; TGI (DU-145 prostate): > 70.1 µM; TGI (EKVX NSCLC): > 76.8 µM; TGI (HCC-2998 colon): 31 µM; TGI (HCT-116 colon): 26 µM; TGI (HCT-15 colon): 77.7 µM; TGI (HOP-62 NSCLC): 41.9 µM; TGI (HOP-92 NSCLC): 61.5 µM; TGI (HS 578T breast): 65.2 µM; TGI (HT29 colon): 36.3 µM; TGI (IGROV1 ovarian): > 81.8 µM; TGI (K-562 leukemia): > 100 µM; TGI (KM12 colon): 33 µM; TGI (M14 melanoma): 44.7 µM; TGI (MALME-3M melanoma): 56.2 µM; TGI (MCF7 breast): > 100 µM; TGI (MDA-MB-231 breast): 61.1 µM; TGI (MDA-MB-435): 31.8 µM; TGI (MOLT-4 leukemia): > 100 µM; TGI (NCI-H226 lung): > 91.1 µM; TGI (NCI-H23 lung): > 75.2 µM; TGI (NCI-H460 lung): > 100 µM; TGI (NCI-H522 lung): 26.6 µM; TGI (NCI/ADR-RES ovarian): 56.9 µM; TGI (OVCAR-3 ovarian): 32.1 µM; TGI (OVCAR-4 ovarian): > 100 µM; TGI (OVCAR-5 ovarian): > 95.9 µM; TGI (OVCAR-8 ovarian): 63.1 µM; TGI (PC-3 prostate): > 100 µM; TGI (RPMI-8226 leukemia): > 100 µM; TGI (RXF 393 renal): > 78 µM; TGI (SF-268 CNS): > 100 µM; TGI (SF-295 CNS): > 100 µM; TGI (SF-539 CNS): 26.7 µM; TGI (SK-MEL-2 melanoma): > 76.6 µM; TGI (SK-MEL-28 melanoma): > 87.7 µM; TGI (SK-MEL-5 melanoma): 2.37 µM; TGI (SK-OV-3 ovarian): > 100 µM; TGI (SN12C renal): > 100 µM; TGI (SNB-19 CNS): > 100 µM; TGI (SNB-75 CNS): > 100 µM; TGI (SW-620 colon): > 100 µM; TGI (T-47D breast): > 100 µM; TGI (TK-10 renal): > 100 µM; TGI (U251 CNS): > 58.9 µM; TGI (UACC-257 melanoma): > 80 µM; TGI (UACC-62 melanoma): 26.6 µM; TGI (UO-31 renal): > 82 µM
